According to ChEMBL document CHEMBL5550184, “Structure-activity relationships of middle-size cyclic peptides, KRAS inhibitors derived from an mRNA display” (Bioorg Med Chem, 2024):
Positions of bridges follow the written chain, without caps; N, C: chain ends. Non-standard residues stand in square brackets, D forms with d. Residues, ends and D or L forms follow the SMILES beside them. *: point of attachment. hPhe(3-Cl-4-CF3) = N[C@@H](CCc1ccc(C(F)(F)F)c(Cl)c1)C(=O)O; NMeCha = CN[C@@H](CC1CCCCC1)C(=O)O; NMeChg = CN[C@H](C(=O)O)C1CCCCC1; NMeT = CN[C@H](C(=O)O)[C@@H](C)O; NMeD = CN[C@@H](CC(=O)O)C(=O)O; NMehSer = CN[C@@H](CCO)C(=O)O; NMeNva = CCC[C@H](NC)C(=O)O; Piperidide = C1CCN(*)CC1; Ac5c = NC1(C(=O)O)CCCC1; Sar = CNCC(=O)O

What was measured:
[1] = system: GTPase KRas (Homo sapiens), P01116 [G12D]; assay: Binding affinity to biotinylated KRAS G12D mutant (unknown origin) assessed as Koff incubated for 120 mins by SPR analysis
[2] = Apparent permeability in human Caco-2 cells incubated for 180 mins by LC-MS/MS method; format: ADME, cell-based
[3] = system: GTPase KRas (Homo sapiens), P01116 [G12D]; assay: Binding affinity to biotinylated KRAS G12D mutant (unknown origin) assessed as Kon incubated for 120 mins by SPR analysis
ASPC1 = assay: Cytotoxicity against human AsPC1 cells assessed as reduction in cell viability incubated for 7 days by CellTiterGlo Luminescent Cell Viability Assay; format: functional, cell-based; conditions: ASPC1, 168 h
[4] = Inhibition of biotin-tagged KRAS G12D mutant (unknown origin) to recombinant His-tagged SOS1 (unknown origin) protein-protein interaction incubated for 120 mins by AlphaLISA method; parameters: species or system Homo sapiens
GTPase KRas = GTPase KRas (Homo sapiens, UniProt P01116, G12D); assay: Binding affinity to biotinylated KRAS G12D mutant (unknown origin) incubated for 120 mins by SPR analysis
GTPase KRas, sequence (P01116 whole entry G12D): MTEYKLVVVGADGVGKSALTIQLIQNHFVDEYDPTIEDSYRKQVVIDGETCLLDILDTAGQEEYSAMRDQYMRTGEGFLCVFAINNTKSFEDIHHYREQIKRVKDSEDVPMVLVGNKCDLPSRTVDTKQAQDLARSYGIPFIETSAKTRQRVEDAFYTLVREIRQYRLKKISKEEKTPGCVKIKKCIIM

GTPase KRas (Homo sapiens), P01116 [G12D], sequence (P01116 whole entry G12D, looked up): as the sequence (P01116 whole entry G12D) above

SMILES | K [1] | Papp at 3 h [2] | K [3] | IC50 (ASPC1) | IC50 [4] | Kd (GTPase KRas)
CCC[C@H]1C(=O)N[C@@H]([C@@H](C)CC)C(=O)N(C)CC(=O)N(C)CC(=O)N(C)[C@@H](CC2CCCCC2)C(=O)N(C)CC(=O)N[C@@H](CCc2ccc(C(F)(F)F)c(Cl)c2)C(=O)N2CCC[C@H]2C(=O)NC2(CCCC2)C(=O)N(C)[C@@H](C2CCCCC2)C(=O)N(C)[C@H](C(=O)N2CCCCC2)CC(=O)N1C ([NMeNva]I[Sar][Sar][NMeCha][Sar][hPhe(3-Cl-4-CF3)]P[Ac5c][NMeChg][NMeD]-Piperidide; lactam N-11) | 2.3 10^-4/s | 0.85 ×10⁻⁶ cm/s | 3.1 10^5/Ms | 49 nM | < 2 nM | 0.75 nM
CC[C@H](C)[C@@H]1NC(=O)[C@H]([C@@H](C)O)N(C)C(=O)C[C@@H](C(=O)N2CCCCC2)N(C)C(=O)[C@H](C2CCCCC2)N(C)C(=O)C2(CCCC2)NC(=O)[C@@H]2CCCN2C(=O)[C@H](CCc2ccc(C(F)(F)F)c(Cl)c2)NC(=O)CN(C)C(=O)[C@H](CC2CCCCC2)N(C)C(=O)CN(C)C(=O)CN(C)C1=O ([NMeT]I[Sar][Sar][NMeCha][Sar][hPhe(3-Cl-4-CF3)]P[Ac5c][NMeChg][NMeD]-Piperidide; lactam N-11) | 2.7 10^-4/s | 0.15 ×10⁻⁶ cm/s | 1.2 10^6/Ms | 220 nM | < 2 nM | 0.23 nM
CC[C@H](C)[C@@H]1NC(=O)[C@H](CCOC)N(C)C(=O)C[C@@H](C(=O)N2CCCCC2)N(C)C(=O)[C@H](C2CCCCC2)N(C)C(=O)C2(CCCC2)NC(=O)[C@@H]2CCCN2C(=O)[C@H](CCc2ccc(C(F)(F)F)c(Cl)c2)NC(=O)CN(C)C(=O)[C@H](CC2CCCCC2)N(C)C(=O)CN(C)C(=O)CN(C)C1=O ([NMehSer](Me)I[Sar][Sar][NMeCha][Sar][hPhe(3-Cl-4-CF3)]P[Ac5c][NMeChg][NMeD]-Piperidide; lactam N-11) | 2.8 10^-4/s | 0.37 ×10⁻⁶ cm/s | 1.1 10^6/Ms | 74 nM | < 2 nM | 0.26 nM
CC[C@H](C)[C@@H]1NC(=O)[C@H](CCO)N(C)C(=O)C[C@@H](C(=O)N2CCCCC2)N(C)C(=O)[C@H](C2CCCCC2)N(C)C(=O)C2(CCCC2)NC(=O)[C@@H]2CCCN2C(=O)[C@H](CCc2ccc(C(F)(F)F)c(Cl)c2)NC(=O)CN(C)C(=O)[C@H](CC2CCCCC2)N(C)C(=O)CN(C)C(=O)CN(C)C1=O ([NMehSer]I[Sar][Sar][NMeCha][Sar][hPhe(3-Cl-4-CF3)]P[Ac5c][NMeChg][NMeD]-Piperidide; lactam N-11) | 2.2 10^-4/s | 0.39 ×10⁻⁶ cm/s | 1.2 10^6/Ms | 63 nM | < 2 nM | 0.17 nM
